According to PubChem BioAssay (NCI):
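1) Cells in 96-well plates. 2) Compound, 48 h, 5 concentrations. 3) Linear interpolation between surrounding doses. 4) Unreached endpoint = highest concentration. GI50 marks 50% less growth. TGI: total growth inhibition.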

How the values were obtained:
Assay in all cases: NCI-60 cell line screen, 48 h
DU-145 prostate = system: DU-145 prostate
NCI-H522 lung = system: NCI-H522 lung
OVCAR-3 ovarian = system: OVCAR-3 ovarian
SN12C renal = system: SN12C renal
HT29 colon = system: HT29 colon
OVCAR-8 ovarian = system: OVCAR-8 ovarian
CAKI-1 renal = system: CAKI-1 renal
OVCAR-4 ovarian = system: OVCAR-4 ovarian
M14 melanoma = system: M14 melanoma
MALME-3M melanoma = system: MALME-3M melanoma

| SMILES | GI50 (DU-145 prostate) | TGI (DU-145 prostate) | GI50 (NCI-H522 lung) | TGI (NCI-H522 lung) | GI50 (OVCAR-3 ovarian) | TGI (OVCAR-3 ovarian) | GI50 (SN12C renal) | TGI (SN12C renal) | GI50 (HT29 colon) | TGI (HT29 colon) | GI50 (OVCAR-8 ovarian) | TGI (OVCAR-8 ovarian) | GI50 (CAKI-1 renal) | TGI (CAKI-1 renal) | GI50 (OVCAR-4 ovarian) | TGI (OVCAR-4 ovarian) | GI50 (M14 melanoma) | TGI (M14 melanoma) | GI50 (MALME-3M melanoma) | TGI (MALME-3M melanoma) |
| --- | --- | --- | --- | --- | --- | --- | --- | --- | --- | --- | --- | --- | --- | --- | --- | --- | --- | --- | --- | --- |
| c1ccc(-c2nc(Nc3ccc(-c4nc5ccccc5[nH]4)cc3)nc(N3CCOCC3)n2)cc1 | 1.21 µM | 2.49 µM | 2.1 µM | 3.92 µM | 1.52 µM | 2.98 µM | 1.74 µM | 3.83 µM | 0.646 µM | 2.19 µM | 1.72 µM | 3.41 µM | 1.28 µM | 2.54 µM | 1.68 µM | 3.08 µM | 1.34 µM | 2.9 µM | 2 µM | 3.85 µM |
| COC(=O)Nc1ccc2ccc3c(NC(=O)OC)ccc4ccc1c2c43 (tested in a mixture with another compound) | 14.8 µM | > 50 µM | 11 µM | > 50 µM | 10.6 µM | 45.2 µM | 18.9 µM | > 50 µM | 4.31 µM | > 50 µM | 14.3 µM | > 50 µM | 6.44 µM | 27.4 µM | 15.7 µM | > 50 µM | 3.93 µM | > 50 µM | 7.43 µM | > 50 µM |
| COc1ncnc2c(NC3OC(CO)C(O)C3O)ncnc12 (stereo not given) |  | 10 µM |  | > 100 µM |  | 11.1 µM |  | 10.6 µM |  | > 32 µM |  | 5.29 µM |  | 6.3 µM |  | 7.08 µM |  | 21.9 µM |  | > 100 µM |
| CN(C)c1cccc2[nH]c(-c3[nH]ncc3Nc3ccnc(N)n3)nc12 | 0.0175 µM | 1.03 µM | 0.0221 µM | 0.166 µM | < 0.0121 µM | 1.09 µM | 0.0233 µM | 1.1 µM | 0.0286 µM | 0.638 µM | 0.0213 µM | 1.68 µM | < 0.01 µM | 1.01 µM | 0.0349 µM | 0.706 µM | 0.0222 µM | 0.0812 µM | 0.0359 µM | 0.114 µM |
| Cc1sc2ncnc(Sc3nc4ccccc4[nH]3)c2c1C | 20.8 µM | 72.4 µM | 21.5 µM | 61.2 µM | 23.3 µM | 60 µM | 32.5 µM | > 100 µM | 21.9 µM | 53.6 µM | 20.7 µM | 62.7 µM | 25.4 µM | > 100 µM | 20.6 µM | 66.9 µM | 41.1 µM | > 100 µM | 15.6 µM | 80.1 µM |
| COc1nccc(-c2c(-c3ccc(F)cc3)ncn2C2CCC(O)CC2)n1 (stereo not given) | 72.8 µM | > 100 µM | > 60.1 µM | > 100 µM | > 82 µM | > 100 µM | 61.8 µM | > 100 µM | 42.6 µM | > 100 µM | 89.1 µM | > 100 µM | 25.2 µM | > 100 µM | > 65.3 µM | > 100 µM | > 100 µM | > 100 µM | > 100 µM | > 100 µM |
| O=c1c2cc(Br)ccc2oc2ccc(Br)cc12 |  | > 100 µM |  | > 100 µM |  | > 100 µM |  | > 100 µM |  | > 100 µM |  | > 100 µM |  | > 100 µM |  | > 100 µM |  | > 100 µM |  | > 100 µM |
